Laboratory results from patent US8415469B2, “Compounds and methods for kinase modulation, and indications therefor” (Plexxikon Inc., priority 2005, dated 2013).

What was measured:
Assay type in all cases: biochemical
Btk = biological target: T1, Btk (Homo sapiens, UniProt Q06187); test: Z'-Lyte FRET kinase assay (Invitrogen), Btk; conditions: read-out: IC50, activity toward kinase Btk
T1 construct: purchased Invitrogen (assay run by Invitrogen)

Src = biological target: T2, Src (Homo sapiens, UniProt P12931); test: AlphaScreen kinase assay, Src; conditions: read-out: IC50, activity toward kinase Src
T2 construct: P1144. pET-N6 BI-PTP SRC V86-L536-X; made in house

Ret = biological target: T3, Ret (Homo sapiens, UniProt P07949); test: AlphaScreen kinase assay, Ret; conditions: read-out: IC50, activity toward kinase Ret
T3 construct: P1378.pET-SF BI-PTP RET H661-R1012 HIS; made in house
T3 sequence (P07949 with tags, fused parts or gaps): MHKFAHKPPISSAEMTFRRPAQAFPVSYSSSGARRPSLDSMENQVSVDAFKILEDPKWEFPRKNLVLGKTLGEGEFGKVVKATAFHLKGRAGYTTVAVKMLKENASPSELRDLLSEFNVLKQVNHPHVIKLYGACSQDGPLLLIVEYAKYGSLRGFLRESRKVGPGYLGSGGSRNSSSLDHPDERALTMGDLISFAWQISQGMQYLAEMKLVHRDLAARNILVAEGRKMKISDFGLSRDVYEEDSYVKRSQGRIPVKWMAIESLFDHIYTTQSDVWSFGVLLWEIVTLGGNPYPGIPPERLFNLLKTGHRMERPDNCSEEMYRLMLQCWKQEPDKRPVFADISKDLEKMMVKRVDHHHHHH

Flt1 = biological target: T4, Flt1 (Homo sapiens, UniProt P17948); test: AlphaScreen kinase assay, Flt1; conditions: read-out: IC50, activity toward kinase Flt1
T4 construct: P1826.pETN6 BI-PTP FLT1 M799-D1165-X WT; His6 (N); made in house; host or cells: E. coli (PTP1B co-expressed)
T4 sequence (P17948 with tags, fused parts or gaps): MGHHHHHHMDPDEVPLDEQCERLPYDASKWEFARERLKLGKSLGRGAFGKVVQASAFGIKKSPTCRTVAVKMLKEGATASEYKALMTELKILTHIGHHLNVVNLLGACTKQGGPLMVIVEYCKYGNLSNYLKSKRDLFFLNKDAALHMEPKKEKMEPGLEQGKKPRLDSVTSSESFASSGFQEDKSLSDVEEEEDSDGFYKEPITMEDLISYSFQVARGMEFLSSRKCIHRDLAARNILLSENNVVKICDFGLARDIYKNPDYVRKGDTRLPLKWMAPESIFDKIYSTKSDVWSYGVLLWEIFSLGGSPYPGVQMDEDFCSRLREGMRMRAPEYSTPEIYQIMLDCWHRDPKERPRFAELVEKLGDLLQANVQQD

Kdr = biological target: T5, Kdr (Homo sapiens, UniProt P35968); test: Z'-Lyte FRET kinase assay (Invitrogen), Kdr; conditions: read-out: IC50, activity toward kinase Kdr
T5 construct: purchased Invitrogen (assay run by Invitrogen)

Jnk3 = biological target: T6, Jnk3 (Homo sapiens, UniProt P53779); test: AlphaScreen kinase assay, Jnk3; conditions: read-out: IC50, activity toward kinase Jnk3
T6 construct: purchased Upstate Biotechnology

Measured: IC50

T2 sequence (P12931 with tags, fused parts or gaps): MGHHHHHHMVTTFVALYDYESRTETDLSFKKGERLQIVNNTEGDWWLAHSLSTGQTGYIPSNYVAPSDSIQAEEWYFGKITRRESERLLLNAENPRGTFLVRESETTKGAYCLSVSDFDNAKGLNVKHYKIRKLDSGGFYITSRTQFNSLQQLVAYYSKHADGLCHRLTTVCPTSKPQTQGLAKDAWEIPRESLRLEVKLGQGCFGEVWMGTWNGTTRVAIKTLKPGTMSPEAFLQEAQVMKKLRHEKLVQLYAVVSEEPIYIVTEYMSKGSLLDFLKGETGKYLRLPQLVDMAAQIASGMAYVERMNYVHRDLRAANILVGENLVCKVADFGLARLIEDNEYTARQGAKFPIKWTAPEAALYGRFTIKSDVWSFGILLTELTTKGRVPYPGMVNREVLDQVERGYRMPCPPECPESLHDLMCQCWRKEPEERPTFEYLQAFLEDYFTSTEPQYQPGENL
T1 sequence (Q06187 whole entry): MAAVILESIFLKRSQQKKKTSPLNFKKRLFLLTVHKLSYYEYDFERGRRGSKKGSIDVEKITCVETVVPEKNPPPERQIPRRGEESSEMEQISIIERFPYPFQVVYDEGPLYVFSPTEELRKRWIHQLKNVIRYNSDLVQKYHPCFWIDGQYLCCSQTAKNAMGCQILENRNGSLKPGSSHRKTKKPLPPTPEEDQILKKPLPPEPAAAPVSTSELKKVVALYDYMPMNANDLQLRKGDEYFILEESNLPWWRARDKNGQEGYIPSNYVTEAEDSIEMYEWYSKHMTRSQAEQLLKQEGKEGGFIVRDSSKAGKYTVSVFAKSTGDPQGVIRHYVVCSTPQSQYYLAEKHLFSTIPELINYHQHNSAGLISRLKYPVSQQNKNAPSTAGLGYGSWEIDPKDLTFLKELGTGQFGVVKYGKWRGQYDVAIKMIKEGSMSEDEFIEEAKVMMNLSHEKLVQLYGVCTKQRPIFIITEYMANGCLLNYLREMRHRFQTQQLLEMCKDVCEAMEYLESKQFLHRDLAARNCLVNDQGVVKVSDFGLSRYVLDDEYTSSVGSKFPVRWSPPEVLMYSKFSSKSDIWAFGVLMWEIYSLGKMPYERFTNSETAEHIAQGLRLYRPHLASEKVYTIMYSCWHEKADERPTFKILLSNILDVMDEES
T5 sequence (P35968 20-1356): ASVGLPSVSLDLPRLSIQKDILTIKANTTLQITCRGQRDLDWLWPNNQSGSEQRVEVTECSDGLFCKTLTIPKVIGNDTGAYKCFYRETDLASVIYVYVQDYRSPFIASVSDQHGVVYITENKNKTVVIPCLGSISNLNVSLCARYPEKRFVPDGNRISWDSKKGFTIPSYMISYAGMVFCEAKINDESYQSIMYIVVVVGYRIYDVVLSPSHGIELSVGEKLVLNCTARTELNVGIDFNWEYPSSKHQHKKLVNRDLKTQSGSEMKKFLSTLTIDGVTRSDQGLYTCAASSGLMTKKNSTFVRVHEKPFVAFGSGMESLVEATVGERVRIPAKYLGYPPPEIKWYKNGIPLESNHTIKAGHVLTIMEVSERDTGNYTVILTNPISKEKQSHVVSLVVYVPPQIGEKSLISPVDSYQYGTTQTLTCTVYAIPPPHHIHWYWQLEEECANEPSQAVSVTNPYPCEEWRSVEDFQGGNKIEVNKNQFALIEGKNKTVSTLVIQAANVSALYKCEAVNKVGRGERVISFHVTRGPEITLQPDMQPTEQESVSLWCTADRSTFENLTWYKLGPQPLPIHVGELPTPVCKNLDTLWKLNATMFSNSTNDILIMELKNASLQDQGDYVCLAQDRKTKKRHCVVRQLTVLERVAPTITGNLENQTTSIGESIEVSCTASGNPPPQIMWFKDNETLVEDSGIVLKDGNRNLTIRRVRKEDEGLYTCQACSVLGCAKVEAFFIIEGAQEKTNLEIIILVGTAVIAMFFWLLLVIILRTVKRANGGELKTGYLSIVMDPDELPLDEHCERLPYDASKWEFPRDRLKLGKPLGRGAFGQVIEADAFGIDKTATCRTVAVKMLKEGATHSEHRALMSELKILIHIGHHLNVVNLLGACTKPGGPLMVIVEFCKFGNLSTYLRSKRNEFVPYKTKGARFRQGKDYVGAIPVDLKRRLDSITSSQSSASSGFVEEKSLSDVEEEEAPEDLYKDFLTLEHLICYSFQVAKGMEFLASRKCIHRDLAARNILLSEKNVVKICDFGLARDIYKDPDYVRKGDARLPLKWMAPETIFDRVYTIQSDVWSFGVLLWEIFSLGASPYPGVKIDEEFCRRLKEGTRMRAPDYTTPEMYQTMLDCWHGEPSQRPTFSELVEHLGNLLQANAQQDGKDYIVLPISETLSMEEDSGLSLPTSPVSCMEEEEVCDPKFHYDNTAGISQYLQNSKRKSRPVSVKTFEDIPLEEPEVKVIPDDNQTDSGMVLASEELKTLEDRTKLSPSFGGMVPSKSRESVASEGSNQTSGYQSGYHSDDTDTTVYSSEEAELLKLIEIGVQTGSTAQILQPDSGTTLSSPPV
T6 sequence (P53779 whole entry): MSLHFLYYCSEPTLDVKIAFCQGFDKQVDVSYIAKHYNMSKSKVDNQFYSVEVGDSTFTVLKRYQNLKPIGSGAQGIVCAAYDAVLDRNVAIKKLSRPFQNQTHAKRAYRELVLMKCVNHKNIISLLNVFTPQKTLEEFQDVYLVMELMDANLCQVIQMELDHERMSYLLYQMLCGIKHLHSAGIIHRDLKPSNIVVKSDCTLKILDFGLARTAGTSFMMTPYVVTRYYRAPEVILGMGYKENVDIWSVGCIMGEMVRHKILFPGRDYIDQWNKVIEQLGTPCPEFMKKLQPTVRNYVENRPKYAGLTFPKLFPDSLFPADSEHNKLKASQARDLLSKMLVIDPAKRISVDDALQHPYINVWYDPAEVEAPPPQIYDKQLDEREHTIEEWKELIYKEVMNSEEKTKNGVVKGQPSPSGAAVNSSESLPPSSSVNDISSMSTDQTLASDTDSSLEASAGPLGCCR

Cc1ccc(S(=O)(=O)NCc2c[nH]c3nccc(-c4cccc(C#N)c4)c23)cc1 [Compound P-0072]
≤ 10 µM: Btk | Src | Ret | Flt1

Cc1c(NS(C)(=O)=O)cccc1C(=O)c1c[nH]c2ncc(-c3ccccc3)cc12 [Compound P-0082, N-[2-Methyl-3-(5-phenyl-1H-pyrrolo[2,3-b]pyridine-3-carbonyl)-phenyl]-methanesulfonamide]
not listed: Jnk3
≤ 10 µM: all other assays above

O=C(c1cccc(O)c1)c1c[nH]c2ncc(Nc3ccccc3)cc12 [Compound P-0025]
not listed: Flt1
≤ 10 µM: all other assays above

O=C(c1cc(O)ccc1F)c1c[nH]c2ncccc12 [Compound P-0005]
not listed: Jnk3
≤ 10 µM: all other assays above

CS(=O)(=O)c1cccc(-c2cnc3[nH]cc(C(=O)c4c(F)ccc(F)c4F)c3c2)c1 [Compound P-0102, [5-(3-Methanesulfonyl-phenyl)-1H-pyrrolo[2,3-b]pyridin-3-yl]-(2,3,6-trifluoro-phenyl)-methanone]
not listed: Flt1
≤ 10 µM: all other assays above

O=C(c1ccc(O)cc1Cl)c1c[nH]c2ncccc12 [Compound P-0021]
≤ 10 µM: Btk | Kdr | Src | Flt1

O=C(c1cc(O)ccc1F)c1c[nH]c2ncc(Br)cc12 [Compound P-0068, (5-Bromo-1H-pyrrolo[2,3-b]pyridin-3-yl)-(2-fluoro-5-hydroxy-phenyl)-methanone]
≤ 10 µM: Btk | Kdr | Src | Flt1

CCCS(=O)(=O)Nc1ccc(F)c(C(=O)c2c[nH]c3ncccc23)c1F [Compound P-0007, Propane-1-sulfonic acid [2,4-difluoro-3-(1H-pyrrolo[2,3-b]pyridine-3-carbonyl)-phenyl]-amide]
≤ 10 µM: Btk | Kdr | Src

Cc1c(O)cccc1C(=O)c1c[nH]c2ncc(-c3cccnc3)cc12 [Compound P-0006, (3-Hydroxy-2-methyl-phenyl)-(5-pyridin-3-yl-1H-pyrrolo[2,3b]pyridin-3-yl)-methanone]
not listed: Flt1
≤ 10 µM: all other assays above

Cc1c(O)cccc1C(=O)c1c[nH]c2ncc(-c3ccccc3)cc12 [Compound P-0016, (3-Hydroxy-2-methyl-phenyl)-(5-phenyl-1H-pyrrolo[2,3b]pyridin-3-yl)-methanone]
≤ 10 µM: all assays above

CCCS(=O)(=O)Nc1ccc(F)c(C(=O)c2c[nH]c3ncc(-c4cccnc4)cc23)c1F [Compound P-0088, Propane-1-sulfonic acid [2,4-difluoro-3-(5-pyridin-3-yl-1H-pyrrolo[2,3-b]pyridine-3-carbonyl)-phenyl]-amide]
≤ 10 µM: all assays above

O=C(c1cccc(O)c1F)c1c[nH]c2ncc(-c3cccnc3)cc12 [Compound P-0027, (2-Fluoro-3-hydroxy-phenyl)-(5-pyridin-3-yl-1H-pyrrolo[2,3-b]pyridin-3-yl)-methanone]
≤ 10 µM: all assays above

CN(C)S(=O)(=O)Nc1ccc(F)c(Cc2c[nH]c3ncc(-c4cccnc4)cc23)c1F [Compound P-0166]
≤ 10 µM: Btk | Src | Jnk3 | Flt1

COc1cccc(C(=O)c2c[nH]c3ncc(-c4cccc(NC(C)=O)c4)cc23)c1F [Compound P-1336, N-{3-[3-(2-Fluoro-3-methoxy-benzoyl)-1H-pyrrolo[2,3-b]pyridin-5-yl]-phenyl}-acetamide]
≤ 10 µM: Btk | Src

Cc1c(O)cccc1C(=O)c1c[nH]c2ncc(Br)cc12 [Compound P-0055, (5-Bromo-1H-pyrrolo[2,3-b]pyridin-3-yl)-(3-hydroxy-2-methyl-phenyl)-methanone]
not listed: Jnk3
≤ 10 µM: all other assays above

Cc1ccc(F)cc1C(=O)c1c[nH]c2ncc(-c3cccc(NS(C)(=O)=O)c3)cc12 [Compound P-0028]
≤ 10 µM: Btk | Kdr | Src | Ret

Cc1ccccc1C(=O)c1c[nH]c2nccc(-c3ccc(C(N)=O)cc3)c12 [Compound P-0017]
not listed: Jnk3
≤ 10 µM: all other assays above

O=C(O)/C=C/c1cccc(-c2cnc3[nH]cc(C(=O)c4cc(O)ccc4F)c3c2)c1 [Compound P-0010]
≤ 10 µM: Btk | Src | Jnk3 | Ret

CCCS(=O)(=O)Nc1ccc(F)c(C(=O)c2c[nH]c3ncc(OC)cc23)c1F [Compound P-0806, Propane-1-sulfonic acid [2,4-difluoro-3-(5-methoxy-1H-pyrrolo[2,3-b]pyridine-3-carbonyl)-phenyl]-amide]
≤ 10 µM: Btk | Kdr | Src

O=C(c1cccc(O)c1F)c1c[nH]c2ncc(Br)cc12 [Compound P-0067, (5-bromo-1H-pyrrolo[2,3-b]pyridin-3-yl)-(2-fluoro-3-hydroxy-phenyl)-methanone]
≤ 10 µM: Btk | Kdr | Src | Flt1

CS(=O)(=O)c1cccc(-c2cnc3[nH]cc(C(=O)c4cccc(O)c4F)c3c2)c1 [Compound P-0026, (2-Fluoro-3-hydroxy-phenyl)-[5-(3-methanesulfonylphenyl)1H-pyrrolo[2,3-b]pyridin-3-yl]-methanone]
not listed: Kdr
≤ 10 µM: all other assays above

Cc1ccc(F)cc1C(=O)c1c[nH]c2ncc(-c3cccc(N)c3)cc12 [Compound P-0040]
not listed: Flt1
≤ 10 µM: all other assays above

O=C(c1cc(O)ccc1F)c1c[nH]c2ncc(-c3ccccc3)cc12 [Compound P-0045]
not listed: Flt1
≤ 10 µM: all other assays above
